Data reported in ChEMBL document CHEMBL1201862, “PubChem BioAssay data set” (2004).
Calls of active or inactive are those of the source. Rule as the data show it: actives have a measured IC50 and inactives only a lower limit.

Target: Envelope glycoprotein gp160 (Human immunodeficiency virus 1, UniProt Q6QLK5)
Assay: cell-free HIV fusion peptide-binding blockers – biochemical, uHTS, fluorescence dequenching, […] (AID 1986)

Envelope glycoprotein gp160, sequence (Q6QLK5 whole entry, the tested form may be a part): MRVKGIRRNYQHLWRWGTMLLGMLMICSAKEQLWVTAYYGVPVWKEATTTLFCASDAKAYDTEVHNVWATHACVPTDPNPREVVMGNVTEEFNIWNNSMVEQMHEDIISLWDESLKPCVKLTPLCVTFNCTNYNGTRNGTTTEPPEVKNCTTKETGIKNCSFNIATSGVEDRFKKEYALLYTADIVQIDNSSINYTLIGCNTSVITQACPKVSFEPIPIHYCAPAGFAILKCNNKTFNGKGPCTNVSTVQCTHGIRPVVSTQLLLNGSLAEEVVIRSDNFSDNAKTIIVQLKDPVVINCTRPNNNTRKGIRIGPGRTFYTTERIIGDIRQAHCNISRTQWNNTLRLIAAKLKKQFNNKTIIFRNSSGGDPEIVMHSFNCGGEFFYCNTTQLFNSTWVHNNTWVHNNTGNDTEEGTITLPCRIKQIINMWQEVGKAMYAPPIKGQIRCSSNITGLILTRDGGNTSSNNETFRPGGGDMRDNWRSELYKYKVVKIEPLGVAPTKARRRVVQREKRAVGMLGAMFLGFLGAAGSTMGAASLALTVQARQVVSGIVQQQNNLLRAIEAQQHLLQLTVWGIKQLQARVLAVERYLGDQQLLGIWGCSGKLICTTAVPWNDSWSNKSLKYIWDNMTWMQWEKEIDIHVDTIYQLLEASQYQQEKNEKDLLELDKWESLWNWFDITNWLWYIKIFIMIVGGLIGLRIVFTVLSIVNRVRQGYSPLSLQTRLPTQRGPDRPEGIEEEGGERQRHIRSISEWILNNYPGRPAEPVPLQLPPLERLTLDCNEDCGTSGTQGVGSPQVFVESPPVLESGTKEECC

Row | Structure (SMILES) | IC50
1 | Cc1ccc(/C=C2\SC(=S)N(CCCC(=O)Nc3ccccc3C(=O)O)C2=O)cc1 | 27.8 µM (active)
2 | CS(=O)(=O)C1=NSC2=NC(=O)/C(=C\c3ccc(OC(=O)c4ccco4)c(Br)c3)C(=N)N21 | 16 µM (active)
